The test system of one experiment is wild-type (Can-S) flies. The experiment in a line: Pavlovian olfactory learning: memory retention after massed or spaced training in flies fed cycloheximide. The conditions noted are these: for one-day memory after massed training: vs control flies; for one-day memory retention after spaced training: vs glucose-fed flies. The class given is in vivo, Drosophila. How it is done: For experiments on one day retention after massed or spaced training, flies were fed 35 mM CXM and (w/v) 5% glucose dissolved in 3% ethanol. Groups of 100 flies were placed in feeding tubes (Falcon 2017) containing one 1.0×2.5 cm Whatmann 3MM filter paper strips that was soaked with a total of 126 μl of solution.
The feeding period was limited to 12-14 hrs prior to training, or to the 24-hr retention interval after training. Flies which were fed prior to training were transferred directly to the training apparatus after feeding, subjected to massed or spaced training, then transferred to test tubes containing filter paper strips soaked with 5% glucose during the 24-hr interval. Flies which were fed after training were trained, then transferred immediately to test tubes containing filter paper strips soaked with 5% glucose solution which was laced with 35 mM CXM. Flies remained in the test tubes for the duration of the 24-hr retention interval.
Flies were trained with an automated version of the learning procedure of Tully, T. and W. G. Quinn, J. Comp. Physiol., 157: 263-277 (1985). In brief, flies were trapped in a training chamber, the inside of which was covered with an electrifiable copper grid. Groups of about 100 flies were exposed sequentially to two odors [either octanol (OCT) or methylcyclohexanol (MCH)], which were carried through the training chamber in a current of air, for 60 seconds with 45 seconds rest intervals after each odor presenation. During exposure to the first odor, flies also were subjected to twelve 1.5-second pulses of 60 V DC with a 5-second interpulse interval. After training, flies were transferred to food vials for a particular retention interval. Conditioned odor-avoidance responses then were tested by transferring flies to the choice point of a T-maze, where they were exposed simultaneously to OCT and MCH carried in the distal ends of the T-maze arms and out the choice point on converging currents of air. Flies were allowed to distribute themselves in the T-maze arms for two minutes, after which they were trapped in their respective arms, anesthetized and counted. The “percent correct” then was calculated as the number of flies avoiding the shock-paired odor (they were in the opposite T-maze arm) divided by the total number of flies in both arms. (The number of flies left at the choice point, which usually was less than 5%, were not included in this calculation). Finally, a performance index (PI) was calculated by averaging the percent corrects of two reciprocal groups of flies—one where OCT and shock were paired, the other where MCH and shock were paired—and then by normalizing the average so that a PI=0 represented a 50:50 distribution in the T-maze and a PI=100 represented 100% avoidance of the shock-paired odor. For these studies, three different training protocols were used: 1. One-cycle training consisted of the training session just described. 2. Massed training consisted of 10 of these training cycles delivered one right after the other. 3. Spaced training consisted of 10 training cycles with a 15-min rest interval between each. One-cycle training was used to assay learning, while massed and spaced was used to assay consolidated memories.
A. One-day memory in wild-type flies fed CXM before or immediately after massed or spaced training (FIG. 8): PIs from these four drug treatments (−CXM before, −CXM after, +CXM before and +CXM after) and two training procedures (massed and spaced) were subjected to a TWO-WAY ANOVA with DRUG (F(3,56)=8.93; P<0.001) and TRAINing (F(1,56)=18.10, P<0.001) as main effects and DRUG×TRAIN (F(3,56)=4.68, P=0.006) as the interaction term. The six planned comparisons were judged significant if P≦0.01.
Different groups of wild-type (Can-S) flies were fed 5% glucose solution alone (hatched bars) or laced with 35 mM CXM (striped bars) either for 12-14 hr overnight before massed or spaced training or for the 24-hr retention interval immediately after training. […]

In experiment [1] the target is T1, DNOS (Drosophila nitric oxide synthase) (Drosophila melanogaster, UniProt Q27571, DUP33-33/S105L/S1197R/S20A/S287C).
T1 construct: contained dNOS cDNA (with an XbaI site engineered immediately upstream of the ATG codon) cloned into the XbaI and SmaI sites; made in house; host or cells: 293 human embryonic kidney cells, transient calcium-phosphate transfection; unpurified soluble protein extract
As to the kind of experiment: DNOS enzyme activity, conversion of 3H-L-arginine to 3H-L-citrulline in extracts of dNOS-transfected 293 cells. The class given is biochemical. From the text:
[In a parallel experiment, the specific activity of rat neuronal NOS expressed from the same vector in 293 cells was 3.0±0.02 pmol/mg/min, N=4]. DNOS activity was dependent on exogenous Ca^2+/calmodulin and on NADPH, two cofactors necessary for activity of constitutive mammalian NOSs (Iyengar, R., Proc. Natl. Acad. Sci. USA, 84: 6369-6373 (1987); Bredt, D. S., Proc. Natl. Acad. Sci. USA, 87: 682-685 (1990)). DNOS activity was reduced 90% by the Ca^2+ chelator EGTA (FIG. 17B, group C). Also, 500 μM N-(6-aminohexyl)-1-naphthalene-sulfonamide (W5), a calmodulin antagonist which inhibits activity of neuronal NOS (Bredt, D. S., Proc. Natl. Acad. Sci. USA, 87: 682-685 (1990)), diminished DNOS activity to 18% (0.0222±0.001 pmol/mg/min, N=2). In the absence of exogenous NADPH, DNOS (or nNOS) activity was reduced 20% (0.1061±0.011 pmol/mg/min, N=4 for DNOS; 2.7935±0.033 pmol/mg/min, N=2 for NNOS). DNOS activity also was blocked by inhibitors of mammalian NOSs (Rees, D. D., Br. J. Pharmacol., 101: 746-752 (1990)).
The expression construct for activity assays contained dNOS cDNA (with an XbaI site engineered immediately upstream of the ATG codon) cloned into the XbaI and SmaI sites of the pCGN expression vector (M. Tanaka and W. Herr, Cell, 60: 375 (1990)). 293 human kidney cells were transfected with 15 μg of the dNOS construct, or vector DNA, and precipitated with calcium phosphate as described in (M. J. Imperiale, L. T. Feldman and J. R. Nevins, Cell, 35: 127 (1983)). Cells were collected 2 days later and protein extracts were prepared as described in (J. Sambrook, E. F. Fritsch, T. Maniatis, Molecular Cloning: A Laboratory Manual (Cold Spring Harbor Laboratory, Cold Spring Harbor, N.Y., 1989)).
The enzymatic assay was done essentially as described previously (D. Bredt and S. Snyder, Proc. Natl. Acad. Sci. USA, 87: 682 (1990)). A […] containing 25 μl (50-100 μg) of soluble protein extract, 50 mM Hepes pH 7.4, […], 3 μM FMN, 10 μM tetrahydrobiopterin (ICN), 1 mM DTT, 0.8 mM CaCl2, 1 mM NADPH, 10 μg/ml calmodulin, 2 μl of [^3H]L-arginine (35.7 Ci/mmol, NEN) and 50 mM L-valine in was incubated for 60 minutes at 37° C. The reaction was stopped with 0.5 ml 20 mM Hepes pH 5.5, 2 mM EDTA, 2 mM EGTA, loaded on 0.5 ml Dowex AG 50WX-8 (Na^+ form) column and eluted with 3×0.5 ml of the stop buffer. Radioactivity present in the eluent was quantified in a scintillation counter.
Enzymatic activity was detected only in cells transfected with dNOS cDNA construct (groups B-D) and is presented as specific activity (pmol of citrulline/mg/min.). The DNOS activity also was measured in the presence of 1 mM EGTA without exogenous Ca^2+ or calmodulin (group C), or in the presence of […] (group D). N=4 reactions per group.

Experiment [2] deals with PKA-responsive transcription (CRE-directed reporter) in F9 cells. As to the kind of experiment: PKA-responsive transcription from the CRE-containing D(-71) CAT reporter in transiently transfected F9 cells. Type of experiment: cell-based. To be noted: cotransfection of dCREB2-a and PKA; CAT/βgal ratios standardized to PKA-transfected dishes. As to the method:
Undifferentiated F9 cells were maintained and transfected using the calcium phosphate method as described in Darrow, A. L. et al., “Maintenance and Use of F9 Teratocarcinoma Cells”, In Meth. Enzymol., v. 190 (1990), except that chloroquine was added to […] immediately before transfection and precipitates were washed off ten hours after transfection, at which time the dishes received fresh chloroquine-free medium. Amounts of DNA in transfections were made equivalent by adding RSV-0 where required. Cells were harvested 30 hours after transfection. Extracts were made by three cycles of freeze/thawing, with brief vortexing between cycles. Particulate matter was cleared from extracts by ten minutes of centrifugation in the cold. β-galactosidase assays were performed as described in Miller, J. H., Experiments in Molecular Genetics, Cold Spring Harbor Laboratory, Cold Spring Harbor, N.Y., 1972. CAT assays were performed as described in Sheen, J. Y. and B. Seed, Gene, 67: 271-277 (1988) using aliquots of extract heat-treated at 65° C. for ten minutes and centrifuged for ten minutes to remove debris. Results reported are from three experiments run on different days with at least three dishes per condition within each experiment. Error bars represent standard error of the mean, with error propagation taken into account (Grossman, M. and H. W. Norton, J. Hered., 71: 295-297 (1980)).
F9 cells were transiently transfected with 10 μg of D(−71) CAT plasmid as a CRE-directed reporter. 5 μg of RSV-βgal reporter was included in each dish as a normalization control for transfection efficiency. Different groups received 8 μg of dCREB2-a expression vector and 4 μg of PKA expression vector, separately or in combination. Results are expressed as CAT/Pgal enzyme activity ratios, standardized to values obtained with PKA-transfected dishes. […]
Two different dCREB2 isoforms, dCREB2-a and dCREB2-b, have opposite roles in PKA-responsive transcription. […] CREB-dependent changes in gene expression were measured using a cotransfected construct that has a CRE-containing promoter fused to a reporter gene.

The mark [3] stands for this setting: 35 mM CXM fed 12-14 hr before training.
Setting [4] is: 35 mM CXM fed for the 24-hr retention interval after training.
The mark [5] stands for this setting: flies fed CXM immediately before or after training.

T1 sequence (Q27571 other isoform, or with tags, fused parts or gaps S20A/DUP33-33/S105L/S287C/S1197R): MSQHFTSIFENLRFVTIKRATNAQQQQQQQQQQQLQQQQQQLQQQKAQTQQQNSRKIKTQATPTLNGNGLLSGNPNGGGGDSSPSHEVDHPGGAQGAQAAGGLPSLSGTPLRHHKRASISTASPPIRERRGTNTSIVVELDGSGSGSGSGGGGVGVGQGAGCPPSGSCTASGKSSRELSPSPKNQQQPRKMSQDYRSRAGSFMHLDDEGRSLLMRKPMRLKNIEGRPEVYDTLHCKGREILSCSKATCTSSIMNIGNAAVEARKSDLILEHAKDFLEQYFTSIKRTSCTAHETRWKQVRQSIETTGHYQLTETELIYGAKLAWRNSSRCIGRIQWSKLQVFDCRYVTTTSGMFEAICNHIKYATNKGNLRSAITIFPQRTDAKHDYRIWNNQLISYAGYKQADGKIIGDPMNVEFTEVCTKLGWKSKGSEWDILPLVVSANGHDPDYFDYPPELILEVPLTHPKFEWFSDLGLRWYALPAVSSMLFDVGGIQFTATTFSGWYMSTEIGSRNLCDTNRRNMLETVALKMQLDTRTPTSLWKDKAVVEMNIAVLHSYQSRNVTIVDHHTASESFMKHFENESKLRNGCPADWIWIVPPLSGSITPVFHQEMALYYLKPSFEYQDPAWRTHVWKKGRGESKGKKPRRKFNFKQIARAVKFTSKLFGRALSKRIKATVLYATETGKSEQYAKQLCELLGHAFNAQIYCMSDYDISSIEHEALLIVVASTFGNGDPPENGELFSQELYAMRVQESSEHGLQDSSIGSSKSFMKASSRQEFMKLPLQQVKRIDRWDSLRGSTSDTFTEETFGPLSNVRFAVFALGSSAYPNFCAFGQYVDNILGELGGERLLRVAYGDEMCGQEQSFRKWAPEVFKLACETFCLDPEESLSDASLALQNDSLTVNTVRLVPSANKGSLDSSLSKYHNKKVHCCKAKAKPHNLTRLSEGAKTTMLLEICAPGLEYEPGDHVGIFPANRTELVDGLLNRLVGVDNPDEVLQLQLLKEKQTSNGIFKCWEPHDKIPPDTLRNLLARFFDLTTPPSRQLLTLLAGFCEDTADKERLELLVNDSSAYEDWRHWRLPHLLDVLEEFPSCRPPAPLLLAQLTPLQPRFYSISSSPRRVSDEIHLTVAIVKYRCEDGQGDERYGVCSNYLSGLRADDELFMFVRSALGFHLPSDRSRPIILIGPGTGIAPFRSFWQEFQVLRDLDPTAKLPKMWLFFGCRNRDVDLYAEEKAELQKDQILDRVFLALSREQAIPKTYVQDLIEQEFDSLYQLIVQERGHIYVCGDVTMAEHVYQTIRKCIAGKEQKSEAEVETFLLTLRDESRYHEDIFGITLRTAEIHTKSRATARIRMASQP

In the case of `C[C@@H]1C[C@@H]([C@H](O)CC2CC(=O)NC(=O)C2)C(=O)[C@@H](C)C1` [CXM, cycloheximide], in the experiment with wild-type (Can-S) flies (setting [3]), the “one-day memory after massed training” value is given as “no difference was detected” and the “one-day memory retention after spaced training” value is reported as “significantly lower than normal”. Further, in the experiment on wild-type (Can-S) flies (setting [4]), the “one-day memory after massed training” value is “no difference was detected” and the “one-day memory retention after spaced training” value is recorded as “significantly lower than normal”. Also, in the experiment with wild-type (Can-S) flies (setting [5]), the “anesthesia-resistant memory (ARM)” value is given as “not affected” and the “long-term memory (LTM)” value was “completely blocked”.

Molecule `O=C(O)CN(CCOCCOCCN(CC(=O)O)CC(=O)O)CC(=O)O` [EGTA] showed a DNOS activity reduced in experiment [1] (1 mM EGTA without exogenous Ca2+ or calmodulin (FIG. 17B, group C)) of 90%.

Molecule `COC(=O)[C@@H](N)CCCNC(=N)N[N+](=O)[O-]` [L-NAME, N^G-nitro-L-arginine methyl ester] showed a DNOS activity reduced in experiment [1] (100 mM L-NAME with exogenous Ca2+/calmodulin (FIG. 17B, group D)) of 84%.

Take `CC(=O)O.CNC(=N)NCCC[C@H](N)C(=O)O` [N^G-monomethyl-L-arginine acetate]: in experiment [1] (100 μM N^G-monomethyl-L-arginine acetate), the “block of DNOS activity” value is “complete block”. Moreover, the DNOS specific activity in experiment [1] (100 μM N^G-monomethyl-L-arginine acetate, N=2) stood at 0.0001 ± 0.0002 pmol/mg/min.

What is called remaining activity is the signal under treatment as a percentage of the control signal. In turn, `NCCCCCCNS(=O)(=O)c1cccc2ccccc12` [W5, N-(6-aminohexyl)-1-naphthalene-sulfonamide] returned a DNOS specific activity in experiment [1] (500 μM W5, N=2) of 0.0222 ± 0.001 pmol/mg/min. Further, the remaining activity at 500 µM in experiment [1] (500 μM W5, read-out: DNOS activity diminished to (remaining activity)) came out at 18%.

B1: dCREB2-a: Drosophila dCREB2 isoform, PKA-responsive transcriptional activator (SEQ ID NO.: 2), expressed from RSV-dCREB2-a (protein, listed as Drosophila sp.)
chain: MDNSIVEENGNSSAASGSNDVVDVVAQQAAAAVGGGGGGGGGGGGGGNPQQQQQNPQSTTAGGPTGATNNAQGGGVSSVLTTTANCNIQYPIQTLAQHGLQVSIWGPGAWCQLSSVRCYGSQPEVATKDVQSVIQANPSGVIQTAAGTQQQQQALAAATAMQKVVYVAKPPNSTVIHTTPGNAVQVRNKIPPTFPCKIKPEPNTQHPEDSDESLSDDDSQHHRSELTRRPSYNKIFTEISGPDMSGASLPMSDGVLNSQLVGTGAGGNAANSSLMQLDPTYYLSNRMSYNTNNSGIAEDQTRKREIRLQKNREAARECRRKKKEYIKCLENRVAVLENQNKALIEELKSLKELYCQTKND
Regarding B1, in experiment [2], the “activation of CRE reporter relative to PKA alone” value came to 5.4 fold.

For the origin of these results see patent US7572434B2, “Method for assessing the effect of a drug on long term memory formation” (Cold Spring Harbor Laboratory, priority 1994, dated 2009).
